± gives the standard deviation of the averaged measurements.
How the values were obtained:
Experiment in all cases: LOEC (log10 uM (lowest observed effect concentration))
[1] = compound: O=C(O)C(F)(F)OC(F)(F)C(F)(F)OC(F)(F)C(F)(F)OC(F)(F)C(F)(F)C(F)(F)C(F)(F)F [Perfluoro-3,6,9-trioxatridecanoic acid]
Description: (§1)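 BioMAP Diversity Plus panel in human primary cell co-cultures, 4 concentrations in duplicate blinded samples. Responses are log10 fold change versus DMSO control, processed with tcpl v2.1.0. A hit is called when responses at any concentration exceed the cutoff (the larger of 3*bmad or log10(1.2)); the lowest observed effect concentration (modl_ga, log10 uM) is reported for hits.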

[2] = compound: NS(=O)(=O)C(F)(F)C(F)(F)C(F)(F)C(F)(F)C(F)(F)C(F)(F)C(F)(F)C(F)(F)F [Perfluorooctanesulfonamide]
Description: as §1

[3] = compound: O=C(O)C=C(C(F)(F)F)C(F)(F)F [3,3-Bis(trifluoromethyl)-2-propenoic acid]
Description: as §1

Perfluorononanoic acid = compound: O=C(O)C(F)(F)C(F)(F)C(F)(F)C(F)(F)C(F)(F)C(F)(F)C(F)(F)C(F)(F)F [Perfluorononanoic acid]
Description: as §1

[4] = compound: OCC(F)(F)OC(F)(F)C(F)(F)OC(F)(F)C(F)(F)OC(F)(F)CO [1H,1H,11H,11H-Perfluorotetraethylene glycol]
Description: as §1

[5] = compound: CCNS(=O)(=O)C(F)(F)C(F)(F)C(F)(F)C(F)(F)C(F)(F)C(F)(F)C(F)(F)C(F)(F)F [N-Ethylperfluorooctanesulfonamide]
Description: as §1

Perfluoroundecanoic acid = compound: O=C(O)C(F)(F)C(F)(F)C(F)(F)C(F)(F)C(F)(F)C(F)(F)C(F)(F)C(F)(F)C(F)(F)C(F)(F)F [Perfluoroundecanoic acid]
Description: as §1

Row | Test System | LOEC (log10 uM) [1] | LOEC (log10 uM) [2] | LOEC (log10 uM) [3] | LOEC (log10 uM) (Perfluorononanoic acid) | LOEC (log10 uM) [4] | LOEC (log10 uM) [5] | LOEC (log10 uM) (Perfluoroundecanoic acid)
1 | 3C Eselectin down | 1.78 | 1.78 | 1.3 |  |  |  | 
2 | 3C HLADR down | 1.78 | 1.54 ± 0.34 | 1.78 | 1.78 |  |  | 
3 | 3C ICAM1 down | 1.78 | 1.78 |  |  |  |  | 
4 | 3C IL8 down | 1.3 |  |  |  |  |  | 
5 | 3C MCP1 down | 1.78 | 1.78 |  | 1.78 |  |  | 
6 | 3C MIG down | 1.78 | 1.78 |  |  |  |  | 
7 | 3C Proliferation down | 1.3 | 1.3 |  | 1.78 | 1.54 ± 0.34 | 1.78 | 0.845
8 | 3C SRB down | 1.3 | 1.3 |  | 1.78 |  | 1.78 | 
9 | 3C Thrombomodulin up |  | 1.3 |  |  |  |  | 
10 | 3C TissueFactor down | 1.3 | 1.78 |  | 1.78 |  |  | 
11 | 3C VCAM1 down | 1.78 | 1.78 | 1.54 ± 0.34 | 1.78 |  | 1.78 | 
12 | 3C uPAR down | 1.54 ± 0.34 | 1.78 |  | 1.78 |  |  | 
13 | 4H MCP1 down | 1.78 | 1.78 |  |  | 1.78 | 1.78 | 
14 | 4H Pselectin down | 1.78 | 1.78 | 1.78 |  |  | 1.54 ± 0.34 | 
15 | 4H SRB down | 1.78 | 1.3 |  | 1.78 |  | 1.78 | 
16 | 4H VCAM1 down | 1.54 ± 0.34 | 1.78 | 0.573 ± 0.39 |  |  | 1.78 | 
17 | 4H VEGFRII down |  |  |  |  |  | 1.78 | 
18 | 4H uPAR down | 1.78 | 1.78 |  |  |  |  | 
19 | BE3C EGFR down |  | 1.78 |  |  |  | 1.54 ± 0.34 | 0.845
20 | BE3C ICAM1 down | 0.845 | 1.78 |  | 1.78 |  |  | 0.845

Row | Test System | LOEC (log10 uM) [1] | LOEC (log10 uM) [2] | LOEC (log10 uM) [3] | LOEC (log10 uM) (Perfluorononanoic acid) | LOEC (log10 uM) [4] | LOEC (log10 uM) [5] | LOEC (log10 uM) (Perfluoroundecanoic acid)
21 | BE3C IL1a down | 0.845 | 1.78 |  | 1.78 |  | 1.78 | 0.845
22 | BE3C ITAC down | 0.845 | 1.3 |  | 1.78 |  | 1.3 | 0.301
23 | BE3C Keratin818 down | 0.845 | 1.78 |  | 1.78 |  | 0.845 | 0.845
24 | BE3C MIG down | 0.845 | 1.78 |  | 1.78 |  | 1.78 | 0.845
25 | BE3C MMP9 down | 0.845 | 0.845 |  | 1.78 |  | 0.845 | -0.199 ± 0.71
26 | BE3C PAI1 down | 0.573 ± 0.39 | 0.845 |  | 1.54 ± 0.34 |  | 0.845 | -0.199 ± 0.71
27 | BE3C SRB down | 0.845 | 1.78 |  | 1.78 |  | 1.78 | 0.845
28 | BE3C uPA down | 0.845 | 1.78 |  | 1.31 ± 0.66 |  |  | 0.845
29 | BE3C uPAR down | 0.845 | 1.78 |  | 1.78 |  | 1.3 | 0.845
30 | BF4T CD90 down | 1.3 | 1.78 |  |  |  |  | 
31 | BF4T ICAM1 down | 1.07 ± 0.32 | 1.54 ± 0.34 |  | 1.78 |  | 1.78 | 0.845
32 | BF4T IL1a down | 1.3 | 1.78 |  | 1.78 |  | 1.78 | 0.845
33 | BF4T IL8 down |  | 1.78 |  | 1.78 |  |  | 
34 | BF4T Keratin818 down | 1.3 | 1.54 ± 0.34 |  | 1.78 |  | 1.54 ± 0.34 | 0.845
35 | BF4T MCP1 down | 1.07 ± 0.32 | 1.78 |  | 1.3 | 1.3 | 1.3 | 0.845
36 | BF4T MMP1 down | 1.3 |  |  | 1.78 |  | 1.78 | 0.845
37 | BF4T MMP3 down | 1.07 ± 0.32 | 1.78 |  | 1.78 |  |  | 0.845
38 | BF4T MMP9 down | 1.07 ± 0.32 | 1.3 |  | 1.78 |  | 1.54 ± 0.34 | 0.845
39 | BF4T PAI1 down | 1.3 | 1.78 |  | 1.78 |  |  | 0.845
40 | BF4T SRB down | 1.3 | 1.78 |  | 1.78 |  | 1.78 | 0.845

Row | Test System | LOEC (log10 uM) [1] | LOEC (log10 uM) [2] | LOEC (log10 uM) [3] | LOEC (log10 uM) (Perfluorononanoic acid) | LOEC (log10 uM) [4] | LOEC (log10 uM) [5] | LOEC (log10 uM) (Perfluoroundecanoic acid)
41 | BF4T VCAM1 down | 0.845 | 1.3 |  | 1.07 ± 0.32 |  | 0.845 | 0.845
42 | BF4T uPA down | 1.3 | 1.78 |  | 1.78 |  |  | 0.845
43 | BT Bcell Proliferation down |  |  | 1.78 |  |  |  | 
44 | BT Bcell Proliferation up |  |  |  | 1.78 |  |  | 
45 | BT sIgG down | 1.78 | 1.54 ± 0.34 | 1.78 |  | 1.78 | 1.54 ± 0.34 | 
46 | BT xIL17A down | 1.78 | 1.78 | 1.78 |  |  |  | 
47 | BT xIL17F down | 1.78 | 1.78 | 0.573 ± 0.39 |  | 1.78 | 1.54 ± 0.34 | 
48 | BT xTNFa down |  | 1.54 ± 0.34 | 1.54 ± 0.34 |  | 1.78 |  | 
49 | CASM3C HLADR down |  |  | 0.573 ± 0.39 |  |  |  | 
50 | CASM3C LDLR down | 1.78 | 1.78 |  |  |  |  | 
51 | CASM3C Proliferation down | 1.78 | 1.78 | 1.78 |  |  |  | 
52 | CASM3C SRB down | 1.78 | 1.78 |  |  |  |  | 
53 | CASM3C uPAR down |  | 1.78 |  |  |  |  | 
54 | IMphg IL1a down | 1.54 ± 0.34 |  |  |  |  |  | 
55 | IMphg SRB down | 1.78 | 1.78 |  |  |  |  | 
56 | IMphg SRB.Mphg down | 1.78 | 1.78 |  |  |  |  | 
57 | KF3CT ICAM1 down | 1.3 | 1.78 |  |  |  |  | 0.845
58 | KF3CT IL8 down |  | 1.78 |  |  |  |  | 0.845

Reference: the supplement of paper PMC10331698
